Dissolution concentration and Dissolution rate data for one molecule are collected here from patent US20040180961A1, “Compositions and preparation methods for bioavailable oral aceclofenac dosage forms” (priority 2001, published 2004).

The nature of the data set: Dissolution of aceclofenac in pure artificial gastric juice (paddle method). The class given is physicochemical. As for the experimental part: The pharmaceutical preparation containing acelcofenac was completely dissolved in 500 ml of an ethanol solution containing phosphate buffer (pH 6.8) at a volume ratio of 50%, where a preparation further containing substances of low solubility was shaken for 10 min. The resultant solution was centrifuged at 15,000 rpm for 2 min, and then filtered with a 0.45 μm membrane filter. After properly diluting 1 ml of the filtered solution, sample was used in quantification of aceclofenac, using HPLC. In a analysis of aceclofenac, a column was C18 ODS column (4.6×150 mm, 5 μm), an absorbance was at a wave length of 282 nm, a mobile phase was a mixture of MeOH:0.02 M KH2PO4 (65:35), a flow rate was 1 ml/min. 20 μl of sample was injected. Quantification of aceclofenac was accomplished with width ratio of aceclofenac and internal standard (Ethyl paraben).
Dissolution rate of acelcofenac contained in the pharmaceutical preparation was analyzed according to the dissolution test method disclosed in a guidebook “Korea Pharmacopeia (7th revision)”. A NaCl—HCl buffer solution (pH 1.4±0.1) was used as artificial gastric juice, supplemented with Tween 80 in a volume ratio of 0.3% according to intended use. 0.02 M phosphate-buffered solution (pH 6.8±0.1) was used as an artificial intestinal juice. Dissolution was performed according to the paddle method at a stirring rate of 50 rpm and a dissolution temperature of 37±0.5° C., using 500 ml of dissolution solution. […] The collected sample was centrifuged at 15,000 rpm for 2 min and filtered using a 0.45 μm membrane filter. Quantification of aceclofenac was accomplished by using HPLC. In analyzing the dissolution rate of aceclofenac, column was C18 ODS column (4.6×150 mm, 5 μm), absorbance was a wave length of 282 nm, a mobile phase was a mixture of MeOH:0.02 M KH2PO4 (65:35), and a flow rate was 1 ml/min. 20 μl of sample was injected. Quantification of aceclofenac was accomplished with width ratio of aceclofenac and internal standard (Ethyl paraben) Dissolution rate (%) of aceclofenac contained in the solid powder preparations, prepared in example, was measured according to Experimental 5. Content of aceclofenac obtained in Experimental Example 4 was used as 100% and dissolution rate of aceclofenac contained in the solid powder preparations prepared in example was given as a percentage. Dissolution concentration (μg/ml) and dissolution rate (%) of aceclofenac contained in solid powder preparation in artificial gastric juice were measured, the results are given in Tables 1 to 3, below, […]

For `O=C(O)COC(=O)Cc1ccccc1Nc1c(Cl)cccc1Cl` [Aceclofenac], the Dissolution concentration worked out at 0.075 µg/mL (15 min); 0.063 µg/mL (30 min); 0.088 µg/mL (45 min); 0.090 µg/mL (60 min); 0.236 µg/mL (90 min). The Dissolution rate entry was “(0.04) %” (15 min); “(0.03) %” (30 min); “(0.05) %” (45 min); “(0.05) %” (60 min); “(0.12) %” (90 min).
